US20190099468A1, “METHOD TO PROTECT AND SEAL THE OCULAR SURFACE” (UNIVERSITY OF SOUTHERN CALIFORNIA, priority 2017, published 2019)
Structures can show the parent of a compound that is named as a salt.

How the values were obtained:
[1] = test system: HCLE monolayer cell cultures; experiment: Vital dye staining assay (fluorescein), oxidative stress, monolayer cells; type: cell-based, human; settings: 3 mM tBHP, 2 hours; Genistein 200 uM, Chlorpromazine 8 ug/mL, Dynasore 40 uM; FIG. 2B
Excerpt: (§1) The purpose of this study was to investigate mechanisms of dye uptake relevant to ocular surface disease. We hypothesized that stimulation of plasma membrane remodeling by sublethal cell damage would result in vital dye uptake into endocytic repair vesicles. Oxidative stress has been implicated in ocular surface damage due to dry eye and many other ocular surface disorders, thus we chose this as the damaging stress for our study. An aqueous stock solution of tert-butyl hydroperoxide (tBHP) was diluted into the medium of human cell cultures or mouse eye organ cultures as we have previously described. The final dilution of tBHP used for cell culture experiments was 3 mM or 10 mM (as indicated in the individual experimental details). A final dilution of 10 mM tBHP was used for mouse eye organ culture experiments. These optimal concentrations were determined empirically in dose-response assessments as causing a high level of vital dye staining without killing cells. As soon as tBHP was added, all cultures were returned to the cell culture incubator under 5% CO2 atmosphere. Stressed cultures were compared to unstressed controls incubated similarly for the same time period. […]
(§2) A telomerase-immortalized line of human corneal limbal epithelial (HCLE) cells was used for all experiments employing cell culture. […] Stratification was routinely evaluated using phase contrast microscopy; differentiation leading to glycocalyx barrier function was evaluated using the rose bengal penetration assay. […]
(§3) Vital dye staining of cells in culture was performed using sodium fluorescein (Sigma-Aldrich). […] Dye uptake was evaluated qualitatively by imaging. Images (excitation/emission=488/510 nm) were taken immediately after washing, so that staining could be evaluated before dye diffused. Fluorescein uptake by cultured cells was quantified using a plate reader and depicted in graphs as relative fluorescence units (RFU). Rose bengal uptake by cultured cells or eyes was quantified using a modification of a previously described method. […]

HCLE stratified cultures [2] = experiment: Vital dye staining assay (fluorescein, rose bengal), oxidative stress, stratified and differentiated cells; type: cell-based, human; settings: 10 mM tBHP; Genistein 200 uM, Chlorpromazine 8 ug/mL, Dynasore 40 uM, Dyngo-4a 15 uM; FIG. 3B-D
Excerpt: (§4) The purpose of this study was to investigate mechanisms of dye uptake relevant to ocular surface disease. We hypothesized that stimulation of plasma membrane remodeling by sublethal cell damage would result in vital dye uptake into endocytic repair vesicles. Oxidative stress has been implicated in ocular surface damage due to dry eye and many other ocular surface disorders, thus we chose this as the damaging stress for our study. An aqueous stock solution of tert-butyl hydroperoxide (tBHP) was diluted into the medium of human cell cultures or mouse eye organ cultures as we have previously described. The final dilution of tBHP used for cell culture experiments was 3 mM or 10 mM (as indicated in the individual experimental details). A final dilution of 10 mM tBHP was used for mouse eye organ culture experiments. These optimal concentrations were determined empirically in dose-response assessments as causing a high level of vital dye staining without killing cells. As soon as tBHP was added, all cultures were returned to the cell culture incubator under 5% CO2 atmosphere. Stressed cultures were compared to unstressed controls incubated similarly for the same time period. Cells were incubated for 2 to 3 hours and mouse eyes were incubated for 2.5 hours before endpoint determination.
(§5) To learn whether endocytosis was involved in dye uptake, the process was blocked by treating cells or eyes with endocytic inhibitors. Chlorpromazine hydrochloride (MP Biologicals, Solon, Ohio), an inhibitor of clathrin-mediated endocytosis, was used at a final dilution of 8 ug/mL. Genistein (Sigma-Aldrich, St Louis, Mo.), an inhibitor of caveolin-mediated endocytosis, was used at 200 uM final dilution. […] All inhibitors were dissolved in DMSO, which served as the treatment vehicle. The same volume of DMSO was added to matching untreated cultures as a vehicle control.
as §2, §3

[3] = test system: ocular surface of ex vivo mouse eyes; experiment: Vital dye staining assay, mouse eye organ culture under oxidative stress; settings: for vital dye uptake once the damage was done: used after stress was applied; for dye uptake at the ocular surface, post-treatment: 10 mM tBHP first, FIG. 4B
Excerpt: as §4, §5
The University of Southern California's Institutional Animal Care and Use Committee approved the research protocol number 11412 for use of mice in this study. Research was conducted in adherence with the Association for Research in Vision and Ophthalmology (ARVO) Statement for the Use of Animals in Ophthalmic and Visual Research. Wild type C57B1/6J mice, 6-8 weeks of age, were purchased from Jackson Labs (Bar Harbor, Me.). Prior to use in an experiment, mice were housed in a pathogen-free barrier facility and kept at […], relative humidity 60%±10%, with alternating 12-hour light/dark cycles. To obtain eyes for organ culture, euthanasia was performed using compressed CO2 gas, according to the American Veterinary Medical Association Guidelines for the Euthanasia of Animals: 2013 Edition. […]
Vital dye staining of cells in culture was performed using sodium fluorescein (Sigma-Aldrich). […] Dye uptake was evaluated qualitatively by imaging. Images (excitation/emission=488/510 nm) were taken immediately after washing, so that staining could be evaluated before dye diffused. Fluorescein uptake by cultured cells was quantified using a plate reader and depicted in graphs as relative fluorescence units (RFU). Rose bengal uptake by cultured cells or eyes was quantified using a modification of a previously described method. After imaging, the stained cells or eyes were incubated in 100 uL of DMSO at room temperature for 1 hour, and the solution was recovered into the wells of a 96 well plate to read in a plate reader at 562 nm.

HCLE monolayer cultures [4] = experiment: Trypan blue exclusion assay; type: cell-based, human; settings: 10 mM tBHP, 3 hours; Dynasore 40 uM at the same time; FIG. 5B
Excerpt: (§6) The purpose of this study was to investigate mechanisms of dye uptake relevant to ocular surface disease. We hypothesized that stimulation of plasma membrane remodeling by sublethal cell damage would result in vital dye uptake into endocytic repair vesicles. Oxidative stress has been implicated in ocular surface damage due to dry eye and many other ocular surface disorders, thus we chose this as the damaging stress for our study. An aqueous stock solution of tert-butyl hydroperoxide (tBHP) was diluted into the medium of human cell cultures or mouse eye organ cultures as we have previously described. […] These optimal concentrations were determined empirically in dose-response assessments as causing a high level of vital dye staining without killing cells. […]
as §2
Cells were stained with filtered 0.4% trypan blue dye (Thermo Fisher Scientific) for 4 minutes following 3 washes with PBS. The extent of staining was measured qualitatively by imaging under white light, and quantitatively using a plate reader at 590 nm.

HCLE stratified cultures [5] = experiment: Lectin binding (fluorescein-conjugated jacalin); type: cell-based, human; settings: 3 mM tBHP, 2 hours; Dynasore 40 uM; FIG. 6A
Excerpt: as §1, with “atmosphere.” for “atmosphere. Stressed cultures were compared to unstressed controls incubated similarly for the same time period.”
as §2

[6] = test system: MPS-treated monolayer cells; settings: publication [61]; cited from earlier work
cardiomyocyte = settings: references [56-58]; cited from earlier work
LGALS3 = experiment: Western blotting of LGALS3 in cell culture medium; type: cell-based, human; settings: stratified cultures, 3 mM tBHP, 2 hours; Dynasore 40 uM; FIG. 6B
Excerpt: as §1, with “atmosphere.” for “atmosphere. Stressed cultures were compared to unstressed controls incubated similarly for the same time period.”
as §2

HCLE monolayer cultures [7] = experiment: Endocytosis assay: uptake of Alexa Fluor 568-conjugated TF under oxidative stress; type: cell-based, human; settings: 3 mM tBHP; co-treatment with Dynasore 40 uM; FIG. 2A
Excerpt: as §6, §2
Endocytosis was quantified by monitoring cell uptake of human Alexa Fluor 568-conjugated TF (serum transferrin; Thermo Fisher Scientific, Waltham, Mass.). […] Cells were then imaged with a Keyence BZ-X700 fluorescence microscope (excitation/emission=532/588 nm). Alexa Fluor 568-conjugated TF uptake was quantified by image J analysis.

HCLE monolayer cultures [8] = experiment: MTT/WST-1 metabolic assays for cytotoxicity; type: cell-based, human; settings: 10 mM tBHP, 2 hours; Dynasore 40 uM at the same time; FIG. 5A
Excerpt: as §1, with “atmosphere.” for “atmosphere. Stressed cultures were compared to unstressed controls incubated similarly for the same time period.”
as §2

ocular surface barrier = settings: mouse model, desiccating stress; cited from earlier work

**Q.** With O=c1c(-c2ccc(O)cc2)coc2cc(O)cc(O)c12 [Genistein] as the compound, how does the “stress-stimulated fluorescein dye uptake” value [1] read?
**A.** blocked

**Q.** What about the “oxidative stress-stimulated vital dye uptake in stratified and differentiated cell cultures” value (HCLE stratified cultures [2]) of the same compound?
**A.** no effect on vital dye uptake

**Q.** With CN(C)CCCN1c2ccccc2Sc2ccc(Cl)cc21 [Chlorpromazine, Chlorpromazine hydrochloride] as the compound, how does the “stress-stimulated fluorescein dye uptake” value [1] read?
**A.** blocked

**Q.** And the “oxidative stress-stimulated vital dye uptake in stratified and differentiated cell cultures” value (HCLE stratified cultures [2])?
**A.** no effect on vital dye uptake

**Q.** Which results are given for O=C(N/N=C/c1cc(O)c(O)cc1O)c1cc2ccccc2cc1O [Dyngo-4a]?
**A.** vital dye uptake once the damage was done [3]: no effect on vital dye uptake; oxidative stress-stimulated vital dye uptake in stratified and differentiated cell cultures (HCLE stratified cultures [2]): very effective inhibitor of vital dye uptake

**Q.** For O=C(N/N=C/c1ccc(O)c(O)c1)c1cc2ccccc2cc1O [Dynasore], which “protection against oxidative stress-induced trypan blue staining” value (HCLE monolayer cultures [4]) is on record?
**A.** remarkably protective, essentially eliminating trypan blue staining

**Q.** And the “jacalin staining of cell surface mucin-type glycoconjugates” value (HCLE stratified cultures [5])?
**A.** no effect

**Q.** And the “stress-stimulated fluorescein dye uptake” value [1]?
**A.** also blocked

**Q.** What about the “uptake of fluorescein in MPS-treated cells” value [6] of the same compound?
**A.** inhibited uptake of fluorescein

**Q.** What about the “dye uptake at the ocular surface, post-treatment” value ([3]; then Dynasore 40 uM for 15 or 30 minutes) of the same compound?
**A.** dye uptake was not reduced

**Q.** And the “dye uptake at the ocular surface, post-treatment” value ([3]; then Dynasore 80 uM for 15 or 30 minutes)?
**A.** dye uptake was not reduced

**Q.** And the “dye uptake at the ocular surface, co-treatment” value ([3]; 10 mM tBHP, Dynasore 40 uM at the same time as stress, FIG. 4A)?
**A.** dye uptake was prevented

**Q.** And the “vital dye uptake once the damage was done” value [3]?
**A.** no effect on vital dye uptake

**Q.** And the “cardiomyocyte apoptosis following oxidative stress” value (cardiomyocyte)?
**A.** protects cardiomyocyte against entering apoptosis following oxidative stress

**Q.** And the “oxidative stress-caused increase in LGALS3 in the cell culture medium” value (LGALS3)?
**A.** inhibited this increase

**Q.** What about the “stress-stimulated TF uptake (endocytosis)” value (HCLE monolayer cultures [7]) of the same compound?
**A.** blocked stress-stimulated TF uptake

**Q.** What about the “protection against oxidative stress-induced increase of MTT/WST-1 absorbance” value (HCLE monolayer cultures [8]) of the same compound?
**A.** protective, in particular for the WST-1 assay

**Q.** And the “oxidative stress-stimulated vital dye uptake in stratified and differentiated cell cultures” value (HCLE stratified cultures [2])?
**A.** very effective inhibitor

**Q.** Which “ocular surface barrier disruption” value (ocular surface barrier) does the source give for “CLU: homeostatic protein clusterin, prominent at fluid-tissue interfaces; SEQ ID NO: 1 is the human isoform 2 preproprotein” here?
**A.** prevents and ameliorates ocular surface barrier disruption
